# Patent US20010053777A1, “Drug treatment for restless leg syndrome” (priority 1999, published 2001)
# Key:
# patients with RLS = assay: Treatment of 2 patients with RLS: therapeutic history, monotherapy trials and combination therapy; type: in vivo, human; conditions: for side effects: dose-limiting or intolerable
# Method: 2 patients with RLS (person and person) were treated with a combination therapy of pramipexole and clonidine.
# The clonidine was also initially prescribed in a single dose of 0.075 mg two hours before bedtime and increased by 0.075 mg at intervals of 3 days.
# 2. Treatment with a combination therapy of clonidine and pramipexole After slowly bringing the clonidine therapy to a complete halt and after a treatment-free period of about 1 week, both patients were treated with a combination of 0.088 mg of pramipexole and 0.075 mg of clonidine. […] After 7 days the dosage of pramipexole had been increased to 0.18 mg and the dosage of clonidine to 0.15 mg, two hours before going to nd sleep.
# [1] = tested on: Restless Leg Syndrome (RLS) patients; conditions: cited from earlier work; for relief from the complaint: a few partly open trials or long-term therapy; for effectiveness in RLS: short-term therapy trials or trials cited in the background
# [2] = 0.225 mg (male) / 0.45 mg (female) single dose before bedtime
# [3] = 2 RLS patients, previous therapy or monotherapy
compound,measurement,setting,value
Cc1nnc2n1-c1sc(Br)cc1C(c1ccccc1Cl)=NC2 [Brotizolam],falling asleep and sleeping through,"patients with RLS; 2 RLS patients, previous therapy",improved
NC(=O)N1c2ccccc2C=Cc2ccccc21 [Carbamazepine],relief from the complaint,[1],only partial relief
N[C@@H](Cc1ccc(O)c(O)c1)C(=O)O [L-DOPA],augmentation under therapy,"patients with RLS; both RLS patients, previous therapy, disappeared on switch to a dopamine agonist",typical augmentation during the day
same,relief from the complaint,[1],significant alleviation of the complaint
CC(C)C[C@H]1C(=O)N2CCC[C@H]2[C@]2(O)O[C@](NC(=O)[C@@H]3C[C@@H]4c5cccc6[nH]cc(c56)C[C@H]4N(C)C3)(C(C)C)C(=O)N12 [alpha-dihydroergocryptine],effectiveness in RLS,[1],effective
C=CCN1C[C@H](C(=O)N(CCCN(C)C)C(=O)NCC)C[C@@H]2c3cccc4[nH]cc(c34)C[C@H]21 [cabergoline],effectiveness in RLS,[1],effective
"Clc1cccc(Cl)c1NC1=NCCN1 [clonidine, 2-(2,6-dichloroanilino)-4,5-dihydroimidazole]",compulsive movements,patients with RLS; [2],improved
same,paresthesia felt,patients with RLS; [2],hardly any
same,quality of sleep and number of times they woke during the night,patients with RLS; [2],not changed
same,side effects,patients with RLS; [3],"dry mouth, dizziness and constipation"
same,"perceived symptoms such as paresthesia, compulsive movement and tiredness during the day","[1]; daily doses 0.1-0.9 mg, 4 open trials, 2 double-blind placebo-controlled trials, a single case study",(statistically significant) reduction
same,sleep latency (polysomnographic),[1]; daily doses 0.1-0.9 mg,shortened
same,"quality of sleep, frequency of waking or periodic leg movements in sleep (PLMS)","[1]; daily doses 0.1-0.9 mg, polysomnographic",not affected
CCN(CC)C(=O)N[C@H]1C=C2c3cccc4[nH]cc(c34)C[C@H]2N(C)C1 [lisuride],effectiveness in RLS,[1],effective
CCCN1C[C@H](CSC)C[C@@H]2c3cccc4[nH]cc(c34)C[C@H]21 [pergolide],side effects,patients with RLS; [3],"nausea, gastrointestinal problems and dizziness"
same,effectiveness in RLS,[1],effective
"CCCN[C@H]1CCc2nc(N)sc2C1 [pramipexole, (S)-2-amino-6-n-propylamino-4,5,6,7-tetrahydro-benzothiazole]","RLS symptoms (discomfort, cramps and pains in the legs, compulsive movement, sleep problems, daytime tiredness)",patients with RLS; [3],certainly improved
same,difference from earlier therapy,"patients with RLS; pramipexole 0.36 mg (male) / 0.27 mg (female) daily, two hours before bedtime",did not report any difference
same,effectiveness in RLS,[1],effective
CCCN(CCC)CCc1cccc2c1CC(=O)N2 [ropinirol],effectiveness in RLS,[1],effective
bromocryptine,effectiveness in RLS,[1],effective
